In ChEMBL document CHEMBL1134846, “Substituted pyrazolopyridines as potent and selective PDE5 inhibitors: potential agents for treatment of erectile dysfunction” (J Med Chem, 2001):

How the values were obtained:
[1] = Selectivity for PDE5 of human platelets over PDE1 of bovine heart
[2] = Selectivity for PDE5 of human platelets over PDE2 of rat kidney
[3] = Selectivity for PDE5 of human platelets over PDE4 of rat kidney
[4] = Selectivity for PDE5 of human platelets over PDE6 of bovine retina
[5] = biological target: T1, cGMP-specific 3',5'-cyclic phosphodiesterase (Homo sapiens, UniProt O76074); test: Inhibition of PDE5 of human platelets
[6] = Half life was determined in dogs after a dose of 23 uM/kg.; format: ADME, organism-based, Canis lupus familiaris; details: dog, in vivo
[7] = biological target: T1, cGMP-specific 3',5'-cyclic phosphodiesterase; test: Relaxant effect on rabbit corpus cavernosal tissue strips; format: tissue-based, Oryctolagus cuniculus, Corpus cavernosum; details: target entry is the homologue from another species
[8] = Half life was determined in male rats after a dose of 21 uM/kg.; format: ADME, organism-based; details: rat, in vivo
[9] = Bioavailability was determined in male rats after a dose of 21 uM/kg.; format: ADME, organism-based; details: rat, in vivo
[10] = Bioavailability was determined in dogs after a dose of 23 uM/kg.; format: ADME, organism-based, Canis lupus familiaris; details: dog, in vivo
[11] = Bioavailability was determined in dogs.; format: ADME, organism-based, Canis lupus familiaris; details: dog, in vivo
[12] = Half life was determined in dogs; format: ADME, organism-based, Canis lupus familiaris; details: dog, in vivo
[13] = Bioavailability was determined in male rats.; format: ADME, organism-based; details: rat, in vivo
[14] = Half life was determined in male rats.; format: ADME, organism-based; details: rat, in vivo

SMILES | IC50 ratio [1] | IC50 ratio [2] | IC50 ratio [3] | IC50 ratio [4] | IC50 [5] | further results
CCn1ncc2c(NCc3ccc(OC)c(Cl)c3)c(C(=O)NCCCN3CCCC3=O)cnc21 | 2900 | 3000 | 460 | 19 | 1.6 nM | –
CCn1ncc2c(N[C@@H](C)C3CCCCC3)c3cc(C#N)ccc3nc21 | – | – | – | – | 1 nM | –
CCCCNc1c(C(=O)OCC)cnc2c1cnn2CC [CARTAZOLATE] | 43 | 45 | 1 | 2 | 180 nM | –
CCn1ncc2c(NCc3ccc(OC)c(Cl)c3)c(C(=O)O)cnc21 | – | – | – | – | 38 nM | –
CCn1ncc2c(NCc3ccc(OC)c(Cl)c3)c(C(=O)NCc3ccncc3)cnc21 | 6400 | 9200 | 600 | 47 | 0.8 nM | half-life [6]: 2.3 h; EC50 [7]: 44 nM; half-life [8]: 1.2 h; bioavailability [9]: 33%; bioavailability [10]: 66%
CCCc1nn(C)c2c(=O)[nH]c(-c3cc(S(=O)(=O)N4CCN(C)CC4)ccc3OCC)nc12 | – | – | – | – | – | bioavailability [11]: 54%; half-life [12]: 5.2 h; bioavailability [13]: 15%; half-life [14]: 0.3 h
CCn1ncc2c(NCc3ccc(OC)c(Cl)c3)c(C(=O)NCCCCCO)cnc21 | 2700 | 5200 | 340 | 35 | 1.4 nM | –
CCn1ncc2c(NCc3ccc(OC)c(Cl)c3)c(C(=O)NC[C@@H]3CCCO3)cnc21 | 2500 | 8000 | 760 | 22 | 1.8 nM | –
